According to the NIST ThermoML archive (doi:10.1016/j.jct.2009.05.004):

Experiment: mn = molality of the nth substance listed, in mol/kg
Conditions: Liquid, Vibrating tube method

[Br-].[Br-].[Zn+2] [zinc bromide] + CCO
Conditions | mass density [kg/m3]
298.15 K, 39998 kPa, m1 = 0.1696 | 842.43
298.16 K, 5021 kPa, m1 = 1.887 | 1058.5
298.16 K, 15032 kPa, m1 = 0.05681 | 807.29
298.16 K, 15201 kPa, m1 = 0.9305 | 937
298.16 K, 15612 kPa, m1 = 0.1696 | 825.53
298.16 K, 15624 kPa, m1 = 0.3043 | 845.7
298.16 K, 20014 kPa, m1 = 0.4384 | 869.08
298.16 K, 29932 kPa, m1 = 0.3043 | 856.21
298.16 K, 34951 kPa, m1 = 0.1696 | 839.25
298.16 K, 35026 kPa, m1 = 1.887 | 1081.92
298.17 K, 5457 kPa, m1 = 0.3043 | 837.46
298.17 K, 25045 kPa, m1 = 0.05681 | 814.8
298.17 K, 25140 kPa, m1 = 1.887 | 1074.74
298.17 K, 25416 kPa, m1 = 0.1696 | 832.79
298.17 K, 35024 kPa, m1 = 0.9305 | 951.54
298.17 K, 39854 kPa, m1 = 0.3043 | 862.75
313.11 K, 20023 kPa, m1 = 0.1696 | 817.08
313.11 K, 39787 kPa, m1 = 1.887 | 1072.61
313.12 K, 29927 kPa, m1 = 1.887 | 1065.27
313.12 K, 34843 kPa, m1 = 1.887 | 1069.01
313.12 K, 39907 kPa, m1 = 0.1696 | 831.46
313.13 K, 4920 kPa, m1 = 0.4384 | 843.98
313.13 K, 14572 kPa, m1 = 0.1696 | 812.62
313.13 K, 24931 kPa, m1 = 0.1696 | 820.9
313.13 K, 25016 kPa, m1 = 1.887 | 1061.4
313.13 K, 35021 kPa, m1 = 0.05681 | 810.73
313.14 K, 5014 kPa, m1 = 0.05681 | 786.55
313.14 K, 5102 kPa, m1 = 0.3043 | 824.32
313.14 K, 9947 kPa, m1 = 0.9305 | 919.42
313.14 K, 29730 kPa, m1 = 0.4384 | 864.47
313.14 K, 34690 kPa, m1 = 0.4384 | 868
313.14 K, 39625 kPa, m1 = 0.3043 | 851.54
313.15 K, 1265 kPa, m1 = 0.05681 | 783.06
313.15 K, 1326 kPa, m1 = 0.3043 | 820.84
313.15 K, 1425 kPa, m1 = 1.49 | 988.5
313.15 K, 5027 kPa, m1 = 1.49 | 991.85
313.15 K, 9994 kPa, m1 = 1.887 | 1048.64
313.15 K, 10024 kPa, m1 = 0.05681 | 791.06
313.15 K, 10245 kPa, m1 = 0.3043 | 828.9
313.15 K, 10627 kPa, m1 = 1.49 | 996.89
313.15 K, 15329 kPa, m1 = 1.49 | 1000.98
313.15 K, 19809 kPa, m1 = 0.9305 | 927.83
313.15 K, 19932 kPa, m1 = 0.4384 | 856.94
313.15 K, 20014 kPa, m1 = 0.3043 | 837.09
313.15 K, 20065 kPa, m1 = 0.05681 | 799.53
313.15 K, 20324 kPa, m1 = 1.49 | 1005.17
313.15 K, 24735 kPa, m1 = 0.4384 | 860.72
313.15 K, 25035 kPa, m1 = 0.9305 | 932.01
313.15 K, 25647 kPa, m1 = 1.49 | 1009.46
313.15 K, 29901 kPa, m1 = 0.9305 | 935.73
313.15 K, 29925 kPa, m1 = 0.1696 | 824.61
313.15 K, 29954 kPa, m1 = 1.49 | 1012.81
313.15 K, 29964 kPa, m1 = 0.05681 | 807.13
313.15 K, 34524 kPa, m1 = 0.3043 | 848.04
313.15 K, 34627 kPa, m1 = 1.49 | 1016.31
313.15 K, 34851 kPa, m1 = 0.1696 | 828.08
313.15 K, 39846 kPa, m1 = 1.49 | 1020.06
313.15 K, 39878 kPa, m1 = 0.9305 | 942.83
313.15 K, 39881 kPa, m1 = 0.4384 | 871.49
313.15 K, 39914 kPa, m1 = 0.05681 | 814.03
313.16 K, 1622 kPa, m1 = 0.4384 | 840.91
313.16 K, 9861 kPa, m1 = 0.4384 | 848.44
313.16 K, 14924 kPa, m1 = 0.4384 | 852.81
313.16 K, 15002 kPa, m1 = 0.9305 | 923.82
313.16 K, 15021 kPa, m1 = 0.05681 | 795.37
313.16 K, 15032 kPa, m1 = 0.3043 | 833
313.16 K, 29952 kPa, m1 = 0.3043 | 844.75
313.16 K, 34974 kPa, m1 = 0.9305 | 939.43
313.17 K, 10022 kPa, m1 = 0.1696 | 808.74
313.17 K, 15110 kPa, m1 = 1.887 | 1053.14
313.17 K, 20144 kPa, m1 = 1.887 | 1057.41
313.17 K, 25481 kPa, m1 = 0.05681 | 803.78
313.17 K, 25921 kPa, m1 = 0.3043 | 841.73
313.18 K, 4967 kPa, m1 = 0.9305 | 914.91
313.19 K, 1520 kPa, m1 = 0.9305 | 911.69
313.19 K, 5004 kPa, m1 = 1.887 | 1044.1
313.2 K, 1456 kPa, m1 = 0.1696 | 801
313.2 K, 4848 kPa, m1 = 0.1696 | 804.13
313.24 K, 1850 kPa, m1 = 1.887 | 1041.15
333.12 K, 1327 kPa, m1 = 0.1696 | 782.58
333.12 K, 1898 kPa, m1 = 0.9305 | 892.88
333.12 K, 4943 kPa, m1 = 1.887 | 1024.22
333.12 K, 9762 kPa, m1 = 0.4384 | 830.56
333.12 K, 19882 kPa, m1 = 0.4384 | 840.07
333.12 K, 39840 kPa, m1 = 1.887 | 1055.35
333.13 K, 5145 kPa, m1 = 0.05681 | 769.04
333.13 K, 24749 kPa, m1 = 0.4384 | 844.29
333.13 K, 29989 kPa, m1 = 0.9305 | 919.06
333.13 K, 34942 kPa, m1 = 0.9305 | 922.93
333.14 K, 5187 kPa, m1 = 0.4384 | 825.95
333.14 K, 19787 kPa, m1 = 0.9305 | 910.38
333.14 K, 20014 kPa, m1 = 0.3043 | 820.51
333.14 K, 25451 kPa, m1 = 0.05681 | 788.08
333.14 K, 34776 kPa, m1 = 1.887 | 1051.46
333.15 K, 1541 kPa, m1 = 0.05681 | 765.27
333.15 K, 1627 kPa, m1 = 0.3043 | 802.62
333.15 K, 1698 kPa, m1 = 1.49 | 969.07
333.15 K, 4776 kPa, m1 = 0.1696 | 786.15
333.15 K, 5045 kPa, m1 = 1.49 | 972.54
333.15 K, 5098 kPa, m1 = 0.9305 | 896.23
333.15 K, 10025 kPa, m1 = 0.05681 | 773.96
333.15 K, 10027 kPa, m1 = 0.9305 | 901.19
333.15 K, 10046 kPa, m1 = 1.887 | 1029.4
333.15 K, 10624 kPa, m1 = 1.49 | 978.11
333.15 K, 15214 kPa, m1 = 1.887 | 1034.43
333.15 K, 15326 kPa, m1 = 1.49 | 982.61
333.15 K, 15924 kPa, m1 = 0.3043 | 816.79
333.15 K, 19921 kPa, m1 = 0.05681 | 783.27
333.15 K, 19984 kPa, m1 = 1.49 | 986.89
333.15 K, 24658 kPa, m1 = 1.49 | 991.01
